In the assay the target is T1, RuV macrodomain (macrodomain from rubella virus p150) (Rubella virus, UniProt G3M8F4).
T1 construct: gene NSP; macrodomain, p150 residues 805-983 (p150 is cut from nonstructural polyprotein p200); pET24a, C-terminal His6 tag, no tag cleavage described; E. coli BL21(DE3)
As to the kind of experiment: isothermal titration calorimetry. The format is binding. Conditions: 20 mM HEPES pH 8, 0.15 M NaCl, 25 °C; 1:1 single-site; crystal structure by soaking with 2 mM ADP-ribose. For orientation: ITC needs no label: the signal is the heat of the interaction.

Among the data in paper PMC10878246, “Crystal structure and biochemical activity of the macrodomain from rubella virus p150” (Journal of virology, 2024) are Kd values, retold here.

By Kd is commonly meant a measure of binding affinity in units of concentration. Turning to `Nc1ncnc2c1ncn2[C@@H]1O[C@H](COP(=O)(O)OP(=O)(O)OC[C@H]2OC(O)[C@H](O)[C@@H]2O)[C@@H](O)[C@H]1O` (stereo partly shown) [ADP-ribose], the Kd was 58.1 ± 5.4 µM.
